The text below walks through data of patent US12195442B2, “(Hetero)arylimidazole compound and harmful organism control agent” (Nippon Soda Co., Ltd., priority 2018, dated 2025).

The subject of the experiment is Mythimna separata. The experiment can be described thus: Test Example 1: efficacy on Mythimna separata (treated artificial feed). It is filed as in vivo. As to conditions: 1 μl of 5% emulsion (I) mixed with 0.8 g artificial feed; second instar larvae; 25° C.; fifth day. How it is done: 5 parts of the (hetero)aryl imidazole compound of the present invention, 93.6 parts of dimethylformamide, and 1.4 parts of polyoxyethylene alkyl aryl ether were mixed and dissolved to prepare emulsion (I) containing 5% of the active ingredient.
For a control, 98.5 parts of dimethylformamide and 1.5 parts of polyoxyethylene alkyl aryl ether were mixed and dissolved to prepare emulsion (II).
An insecticidal rate was calculated according to the following expression: Insecticidal rate (%)=(The number of dead insects/The number of tested insects)×100
0.8 g of commercially available artificial feed (Insecta LFS, manufactured by Nosan Corp.) and 1 μl of the emulsion (I) were well mixed to obtain test feed.
A plastic test container (capacity: 1.4 ml) was packed with 0.2 g of the test feed per treatment plot. Then, two second instar larvae of Mythimna separata were inoculated to each treatment plot. A plastic lid was put on the test container so as to prevent escape of the second instar larvae of Mythimna separata. The container was placed in a thermostat chamber of 25° C. On the fifth day, the insecticidal rate and the food intake were examined. The test was conducted in duplicate.
The insecticidal rate and the food intake of a control plot were examined in the same way as in Test Example 1 except that the emulsion (I) was changed to the emulsion (II).
As for `CCSc1cc(C2CC2)ccc1-c1ncc(C=C(Cl)C(F)(F)F)n1C` (mixture of isomers) [d-6], the “insecticidal rate or food intake as compared with the control plot” value is given as “insecticidal rate of 100% for Mythimna separata or a food intake of 10% or less as compared with the control plot”. The same measure for `CCS(=O)(=O)c1cc(C2CC2)ccc1-c1ncc(C=C(Cl)C(F)(F)F)n1C` (mixture of isomers) [d-7]: “insecticidal rate of 100% for Mythimna separata or a food intake of 10% or less as compared with the control plot”. As for `CCS(=O)(=O)c1cc(C2(C(N)=S)CC2)cnc1-c1ncc(C=C(Cl)C(F)(F)F)n1C` (mixture of isomers) [d-18], the “insecticidal rate or food intake as compared with the control plot” value was “insecticidal rate of 100% for Mythimna separata or a food intake of 10% or less as compared with the control plot”.

In the case of `CCS(=O)(=O)c1cc(C2(C)CC2)cnc1-c1ncc(C=C(Cl)C(F)(F)F)n1C` (mixture of isomers) [d-20], the “insecticidal rate or food intake as compared with the control plot” value is reported as “insecticidal rate of 100% for Mythimna separata or a food intake of 10% or less as compared with the control plot”. With `CCS(=O)(=O)c1cc(C2(c3ccccn3)CC2)cnc1-c1ncc(C=C(Cl)C(F)(F)F)n1C` (mixture of isomers) [d-21], the “insecticidal rate or food intake as compared with the control plot” value was “insecticidal rate of 100% for Mythimna separata or a food intake of 10% or less as compared with the control plot”. The entry for `CCS(=O)(=O)c1cc(C2CC2)cnc1-c1ncc(C=C(Br)C(F)(F)F)n1C` (mixture of isomers) [d-24] is “insecticidal rate of 100% for Mythimna separata or a food intake of 10% or less as compared with the control plot”; for `Cn1c(C=C(Cl)C(F)(F)F)cnc1-c1ncc(C2CC2)cc1S(C)(=O)=O` (mixture of isomers) [d-28] it is “insecticidal rate of 100% for Mythimna separata or a food intake of 10% or less as compared with the control plot”.

As for `CCS(=O)(=O)c1cc(C2CCCC2)cnc1-c1ncc(C=C(Cl)C(F)(F)F)n1C` (mixture of isomers) [d-32], the “insecticidal rate or food intake as compared with the control plot” value is “insecticidal rate of 100% for Mythimna separata or a food intake of 10% or less as compared with the control plot”. `CCS(=O)(=O)c1cc(C2CC2)cnc1-c1ncc(C(F)=C(F)OC(F)(F)F)n1C` (mixture of isomers) [d-37]: the “insecticidal rate or food intake as compared with the control plot” value is recorded as “insecticidal rate of 100% for Mythimna separata or a food intake of 10% or less as compared with the control plot”. The same measure for `CCS(=O)(=O)c1cc(C2CC2)c[n+]([O-])c1-c1ncc(C=C(Cl)C(F)(F)F)n1C` (mixture of isomers) [e-4]: “insecticidal rate of 100% for Mythimna separata or a food intake of 10% or less as compared with the control plot”; for `CCS(=O)(=O)c1cc(C2CC2)cnc1-c1ncc(C=CC(F)(F)C(F)(F)F)n1C` [d-1]: “insecticidal rate of 100% for Mythimna separata or a food intake of 10% or less as compared with the control plot”; for `CCS(=O)(=O)c1cc(C2CC2)ccc1-c1ncc(C=CC(F)(F)C(F)(F)C(F)(F)F)n1C` [d-3]: “insecticidal rate of 100% for Mythimna separata or a food intake of 10% or less as compared with the control plot”. The same measure for `CCS(=O)(=O)c1cc(C2CC2)cnc1-c1ncc(C=CC(F)(F)C(F)(F)C(F)(F)C(F)(F)F)n1C` [d-4]: “insecticidal rate of 100% for Mythimna separata or a food intake of 10% or less as compared with the control plot”.

On to `CCS(=O)(=O)c1cc(C2CC2)ccc1-c1ncc(C=CC(F)(F)C(F)(F)F)n1C` [d-5], for which the “insecticidal rate or food intake as compared with the control plot” value is on record as “insecticidal rate of 100% for Mythimna separata or a food intake of 10% or less as compared with the control plot”. The entry for `CCS(=O)(=O)c1cc(C2CC2)cnc1-c1ncc(C=C(Cl)Cl)n1C` [d-8] is “insecticidal rate of 100% for Mythimna separata or a food intake of 10% or less as compared with the control plot”; for `CCS(=O)(=O)c1cc(C2CC2)cnc1-c1ncc(C=C(Cl)C(F)(F)C(F)(F)F)n1C` [d-12] it is “insecticidal rate of 100% for Mythimna separata or a food intake of 10% or less as compared with the control plot”; for `CCS(=O)(=O)c1cc(C2CC2)cnc1-c1ncc(C=C(Cl)C(F)(F)C(F)(F)C(F)(F)F)n1C` [d-13] it is “insecticidal rate of 100% for Mythimna separata or a food intake of 10% or less as compared with the control plot”. Regarding `CCS(=O)(=O)c1cc(C2CC2)cnc1-c1ncc(C=C(Cl)I)n1C` [d-14], the “insecticidal rate or food intake as compared with the control plot” value is “insecticidal rate of 100% for Mythimna separata or a food intake of 10% or less as compared with the control plot”. Turning to `CCS(=O)(=O)c1cc(C2(C#N)CC2)cnc1-c1ncc(C=C(Cl)C(F)(F)F)n1C` [d-15, 1-(6-(5-(2-chloro-3,3,3-trifluoroprop-1-en-1-yl)-1-methyl-1H-imidazol-2-yl)-5-(ethylsulfonyl)pyridin-3-yl)cyclopropane-1-carbonitrile], the “insecticidal rate or food intake as compared with the control plot” value is listed as “insecticidal rate of 100% for Mythimna separata or a food intake of 10% or less as compared with the control plot”. The entry for `CCS(=O)(=O)c1cc(C2(C#N)CC2)cnc1-c1ncc(C=CC(F)(F)F)n1C` [d-16] is “insecticidal rate of 100% for Mythimna separata or a food intake of 10% or less as compared with the control plot”; for `CCS(=O)(=O)c1cc(C2CC2)cnc1-c1ncc(C=C(C(F)(F)F)C(F)(F)F)n1C` [d-19] it is “insecticidal rate of 100% for Mythimna separata or a food intake of 10% or less as compared with the control plot”. On to `CCS(=O)(=O)c1cc(C2(C#N)CC2)cnc1-c1ncc(C=CC(F)(F)C(F)(F)F)n1C` [d-22], for which the “insecticidal rate or food intake as compared with the control plot” value is listed as “insecticidal rate of 100% for Mythimna separata or a food intake of 10% or less as compared with the control plot”. As to `CCS(=O)(=O)c1cc(C2(C#N)CC2)cnc1-c1ncc(C=CC(F)(F)C(F)(F)C(F)(F)F)n1C` [d-23], the “insecticidal rate or food intake as compared with the control plot” value is “insecticidal rate of 100% for Mythimna separata or a food intake of 10% or less as compared with the control plot”.

For `CCS(=O)(=O)c1cc(C2CC2)cnc1-c1ncc(C=C(F)C(F)(F)C(F)(F)C(F)(F)F)n1C` [d-27], the “insecticidal rate or food intake as compared with the control plot” value was “insecticidal rate of 100% for Mythimna separata or a food intake of 10% or less as compared with the control plot”. The entry for `CCS(=O)(=O)c1cc(C2(C)CC2)cnc1-c1ncc(C=CC(F)(F)C(F)(F)C(F)(F)F)n1C` [d-29] is “insecticidal rate of 100% for Mythimna separata or a food intake of 10% or less as compared with the control plot”. In the case of `Cn1c(C=C(Cl)C(F)(F)C(F)(F)F)cnc1-c1ncc(C2CC2)cc1S(C)(=O)=O` [d-30], the “insecticidal rate or food intake as compared with the control plot” value is “insecticidal rate of 100% for Mythimna separata or a food intake of 10% or less as compared with the control plot”. For the molecule `CCS(=O)(=O)c1cc(C2CC2)cnc1-c1ncc(C=C(Cl)C(F)(F)F)n1C` [d-33], the “insecticidal rate or food intake as compared with the control plot” value is listed as “insecticidal rate of 100% for Mythimna separata or a food intake of 10% or less as compared with the control plot”. The entry for `CCS(=O)(=O)c1cc(C2CC2)cnc1-c1ncc(C(F)=C(F)OC(F)(F)C(F)(F)C(F)(F)F)n1C` [d-35] is “insecticidal rate of 100% for Mythimna separata or a food intake of 10% or less as compared with the control plot”. The same measure for `CCS(=O)(=O)c1cc(C2CC2)c[n+]([O-])c1-c1ncc(C=C(F)C(F)(F)C(F)(F)F)n1C` [e-1]: “insecticidal rate of 100% for Mythimna separata or a food intake of 10% or less as compared with the control plot”.
